# Tests used:
# [1] = tested on: spontaneously hypertensive male rats, strain MHS; assay: Anti-hypertensive activity in the spontaneously hypertensive rat (MHS): blood pressure and heart rate at the tail; format: in vivo
# Protocol: 1. Spontaneously Hypertensive Rat (MHS)
# Four spontaneously hypertensive male rats, strain MHS, weight 250 to 300 g for each group were used. The animals were treated for four consecutive days. The drugs were administered by gastric gavage while suspended in 5% arabic gum (0.2 ml/100 g body weight), and blood pressure (BP) and heart rate (HR) were measured at the tail by BP Recorder W+W. Blood pressure and heart rate were measured on the first and fourth day of treatment 1 hour before and 1 and 5 hours after drug administration.
# normotensive rats = assay: Blood pressure and heart rate in the conscious normotensive rat (NR); format: in vivo; details: 5 mg/kg os
# Protocol: Blood pressure recordings have been made in conscious normotensive unrestrained rats weighing approximately 300 g, via a catheter chronically inserted into the left common carotid artery. Implantation of arterial cannula was made under sodium pentobarbital anesthesia (50 mg/kp i.p.) A 1 cm long incision was made through the previously shaved ventral surface of the neck and the tissues overlying the trachea parted by blunt dissection to reveal the carotid artery. The polyethylene catheter used was made with PE 50 tubing, previously filled with saline containing 250 I.U./ml heparin. The tip of the cannula was pushed at least 2 cm inside the vessel toward the heart. The cannula was then firmly tied and passed beneath the skin to emerge from a small incision in the back of the neck. During the post-operative period and before the start of each recording session, the cannula was flushed through daily with saline containing heparin (250 I.U./ml). The experiments were performed two days after surgery. Drugs were administered by gastric gavage.
# [2] = Acute toxicity (LD50) in mice; format: in vivo, mouse; details: mouse, in vivo; male mice; oral; observed for seven days
# From the text: Evaluation of the Toxicity (LD50)
# Ten male mice for each group were orally treated with drugs at different dose levels for the determination of lethal dose 50 (LD50).
compound,measurement,setting,value
"CN1C[C@H](CC(C#N)C(N)=O)C[C@@H]2c3cccc4[nH]cc(c34)C[C@H]21 (stereo partly drawn) [355/1057, 2-Cyano-3-(6'-methylergoline-8'β)-propionamide]","Change in BP, 1 hr after dose, first day",[1]; 2 mg/kg os,-25 mm Hg
same,"Change in HR, 1 hr after dose, first day",[1]; 2 mg/kg os,0 b/min
same,"Change in HR, 5 hr after dose, first day",[1]; 2 mg/kg os,-8 b/min
same,"Change in BP, 5 hrs after dose, first day",[1]; 2 mg/kg os,0 mm Hg
same,"Change in BP, 1 hr after dose, fourth day",[1]; 2 mg/kg os,-26 mm Hg
same,"Change in HR, 1 hr after dose, fourth day",[1]; 2 mg/kg os,-2 b/min
same,"Change in HR, 5 hr after dose, fourth day",[1]; 2 mg/kg os,-5 b/min
same,"Change in BP, 5 hrs after dose, fourth day",[1]; 2 mg/kg os,-31 mm Hg
same,"Change in BP, 1 hr after dose, first day",[1]; 5 mg/kg os,-51 mm Hg
same,"Change in HR, 1 hr after dose, first day",[1]; 5 mg/kg os,+5 b/min
same,"Change in HR, 5 hr after dose, first day",[1]; 5 mg/kg os,+35 b/min
same,"Change in BP, 5 hrs after dose, first day",[1]; 5 mg/kg os,-41 mm Hg
same,"Change in BP, 1 hr after dose, fourth day",[1]; 5 mg/kg os,-45 mm Hg
same,"Change in HR, 1 hr after dose, fourth day",[1]; 5 mg/kg os,+25 b/min
same,"Change in HR, 5 hr after dose, fourth day",[1]; 5 mg/kg os,+20 b/min
same,"Change in BP, 5 hrs after dose, fourth day",[1]; 5 mg/kg os,-31 mm Hg
same,"Change in Blood Pressure after Treatment, 30'",normotensive rats; 30',-23 mm Hg
same,"Change in heart rate after treatment, 30'",normotensive rats; 30',-25 b/min
same,"Change in Blood Pressure after Treatment, 60'",normotensive rats; 60',-23 mm Hg
same,"Change in heart rate after treatment, 60'",normotensive rats; 60',-40 b/min
same,"Change in Blood Pressure after Treatment, 120'",normotensive rats; 120',-22 mm Hg
same,"Change in heart rate after treatment, 120'",normotensive rats; 120',-42 b/min
same,"Change in Blood Pressure after Treatment, 180'",normotensive rats; 180',-21.7 mm Hg
same,"Change in heart rate after treatment, 180'",normotensive rats; 180',-22 b/min
same,"Change in Blood Pressure after Treatment, 240'",normotensive rats; 240',-23 mm Hg
same,"Change in heart rate after treatment, 240'",normotensive rats; 240',+10 b/min
same,"Change in Blood Pressure after Treatment, 360'",normotensive rats; 360',-20 mm Hg
same,"Change in heart rate after treatment, 360'",normotensive rats; 360',+3 b/min
same,"Change in Blood Pressure after Treatment, 24h",normotensive rats; 24h,-12 mm Hg
same,"Change in heart rate after treatment, 24h",normotensive rats; 24h,+6 b/min
same,LD50 at 168 h,[2],> 1000 mg/kg
"C=CCN1C[C@H](CC(C#N)C(N)=O)C[C@@H]2c3cccc4[nH]cc(c34)C[C@H]21 (stereo partly drawn) [355/1266, 2-Cyano-3-(6'-allylergoline-8'β)-propionamide]","Change in BP, 1 hr after dose, first day",[1]; 2 mg/kg os,-14 mm Hg
same,"Change in BP, 5 hrs after dose, first day",[1]; 2 mg/kg os,-15 mm Hg
same,"Change in BP, 1 hr after dose, fourth day",[1]; 2 mg/kg os,-25 mm Hg
same,"Change in BP, 5 hrs after dose, fourth day",[1]; 2 mg/kg os,-45 mm Hg
same,"Change in BP, 1 hr after dose, first day",[1]; 5 mg/kg os,-14 mm Hg
same,"Change in BP, 5 hrs after dose, first day",[1]; 5 mg/kg os,-10 mm Hg
same,"Change in BP, 1 hr after dose, fourth day",[1]; 5 mg/kg os,-35 mm Hg
same,"Change in BP, 5 hrs after dose, fourth day",[1]; 5 mg/kg os,-60 mm Hg
"CCCN1C[C@H](CC(C#N)C(=O)NCC)C[C@@H]2c3cccc4[nH]cc(c34)C[C@H]21 (stereo partly drawn) [355/1281, 2-Cyano-3-(6'-n-propylergoline-8'β)-N-ethyl-propionamide]","Change in BP, 1 hr after dose, first day",[1]; 5 mg/kg os,-25 mm Hg
same,"Change in BP, 5 hrs after dose, first day",[1]; 5 mg/kg os,-15 mm Hg
same,"Change in BP, 1 hr after dose, fourth day",[1]; 5 mg/kg os,-30 mm Hg
same,"Change in BP, 5 hrs after dose, fourth day",[1]; 5 mg/kg os,-35 mm Hg
"CCCN1C[C@H](CC(C#N)C(N)=O)C[C@@H]2c3cccc4[nH]cc(c34)C[C@H]21 (stereo partly drawn) [355/1282, 2-Cyano-3-(6'n-propylergoline-8'β)-propionamide]","Change in BP, 1 hr after dose, first day",[1]; 2 mg/kg os,-20 mm Hg
same,"Change in BP, 5 hrs after dose, first day",[1]; 2 mg/kg os,-10 mm Hg
same,"Change in BP, 1 hr after dose, fourth day",[1]; 2 mg/kg os,-15 mm Hg
same,"Change in BP, 5 hrs after dose, fourth day",[1]; 2 mg/kg os,-25 mm Hg
same,"Change in BP, 1 hr after dose, first day",[1]; 5 mg/kg os,-40 mm Hg
same,"Change in BP, 5 hrs after dose, first day",[1]; 5 mg/kg os,-45 mm Hg
same,"Change in BP, 1 hr after dose, fourth day",[1]; 5 mg/kg os,-25 mm Hg
same,"Change in BP, 5 hrs after dose, fourth day",[1]; 5 mg/kg os,-30 mm Hg
"C=CCN1C[C@H](CC(C#N)C(=O)NCC)C[C@@H]2c3cccc4[nH]cc(c34)C[C@H]21 (stereo partly drawn) [355/1320, 2-Cyano-3-(6'-allylergoline-8'β)-N-ethylpropionamide]","Change in BP, 1 hr after dose, first day",[1]; 5 mg/kg os,-30 mm Hg
same,"Change in BP, 5 hrs after dose, first day",[1]; 5 mg/kg os,-20 mm Hg
same,"Change in BP, 1 hr after dose, fourth day",[1]; 5 mg/kg os,-20 mm Hg
same,"Change in BP, 5 hrs after dose, fourth day",[1]; 5 mg/kg os,-15 mm Hg

# — US4321381A, “Ergot derivatives” (Farmitalia Carlo Erba S.p.A., priority 1978, dated 1982)
